# ChEMBL document CHEMBL4828751, “Discovery of novel tubulin/HDAC dual-targeting inhibitors with strong antitumor and antiangiogenic potency” (Eur J Med Chem, 2021)
# Calls of active or inactive are those of the source. The calls are words filed in the database; no cut-off is given here.
# Experiments:
# [1] = test system: MGC-803; assay: Induction of cell cycle arrest in human MGC-803 cells assessed as accumulation at G2/M phase at 15 nM incubated for 24 hrs by propidium iodide staining based flow cytometry (reference value: 37.03 %); format: functional
# [2] = test system: MGC-803; assay: Induction of apoptosis in human MGC-803 cells assessed as late apoptotic cells at 15 nM measured after 48 hrs by Annexin V-APC/PI double staining based flow cytometry assay (reference value: 1.05 %); format: functional, cell-based
# [3] = test system: HUVEC; assay: Antivascular activity against HUVEC assessed as inhibition of tube formation at 5 to 20 nM incubated for 48 hrs by […]; format: functional, cell-based; settings: Homo sapiens, dose 5-20 nM
# [4] = test system: MCF7; assay: Antiproliferative activity against human MCF7 cells assessed as cell growth inhibition after 72 hrs by SRB assay; format: functional, cell-based; settings: MCF7, 72 h
# [5] = test system: MGC-803; assay: Induction of apoptosis in human MGC-803 cells assessed as late apoptotic cells at 7.5 nM measured after 48 hrs by Annexin V-APC/PI double staining based flow cytometry assay (reference value: 1.05 %); format: functional, cell-based
# [6] = test system: MGC-803; assay: Induction of apoptosis in human MGC-803 cells assessed as increase in cleaved Caspase-9 expression incubated for 24 hrs by Western blot analysis; format: functional, cell-based; settings: dose 7.5-30 nM
# [7] = target: T1, Tubulin (Homo sapiens) (UniProt P68371+Q9H4B7+P0DPH7+P68366+Q13509+Q71U36+P04350+Q3ZCM7+P07437+P68363+Q9BQE3+Q6PEY2+Q13885+Q9BVA1+Q9BUF5); assay: Inhibition of tubulin polymerization in human MGC-803 cells; format: cell-based
# [8] = test system: MGC-803; assay: Induction of ROS generation in human MGC-803 cells assessed as intracellular ROS level at 7.5 nM incubated for 24 hrs by DCFH-DA staining based flow cytometric analysis (reference value: 2.72 %); format: functional
# [9] = test system: MGC-803; assay: Induction of apoptosis in human MGC-803 cells assessed as early apoptotic cells at 7.5 nM measured after 48 hrs by Annexin V-APC/PI double staining based flow cytometry assay (reference value: 1.31 %); format: functional, cell-based
# [10] = test system: MGC-803; assay: Induction of apoptosis in human MGC-803 cells assessed as early apoptotic cells at 30 nM measured after 48 hrs by Annexin V-APC/PI double staining based flow cytometry assay (reference value: 1.31 %); format: functional, cell-based
# [11] = test system: MGC-803; assay: Induction of cell cycle arrest in human MGC-803 cells assessed as accumulation at S phase at 7.5 nM incubated for 24 hrs by propidium iodide staining based flow cytometry (reference value: 17.3 %); format: functional
# [12] = test system: THP-1; assay: Cytotoxicity against human THP-1 cells assessed as reduction in cell viability; format: cell-based
# [13] = test system: MGC-803; assay: Induction of apoptosis in human MGC-803 cells assessed as necrotic cells at 30 nM measured after 48 hrs by Annexin V-APC/PI double staining based flow cytometry assay (reference value: 0.57 %); format: functional, cell-based
# [14] = test system: MGC-803; assay: Induction of apoptosis in human MGC-803 cells assessed as viable cells at 30 nM measured after 48 hrs by Annexin V-APC/PI double staining based flow cytometry assay (reference value: 92.1 %); format: functional, cell-based
# [15] = test system: MGC-803; assay: Induction of apoptosis in human MGC-803 cells assessed as increase in Caspase-3 expression incubated for 24 hrs by Western blot analysis; format: functional, cell-based; settings: dose 7.5-30 nM
# [16] = test system: MGC-803; assay: Induction of apoptosis in human MGC-803 cells assessed as increase in PARP expression incubated for 24 hrs by Western blot analysis; format: functional, cell-based; settings: dose 7.5-30 nM
# [17] = test system: MGC-803; assay: Induction of apoptosis in human MGC-803 cells assessed as late apoptotic cells at 30 nM measured after 48 hrs by Annexin V-APC/PI double staining based flow cytometry assay (reference value: 1.05 %); format: functional, cell-based
# [18] = test system: MGC-803; assay: Antitumor activity against CMTPX- labeled human MGC-803 cells xenografted in zebrafish assessed as inhibition of tumor metastasis measured after 72 hrs by fluorescence microscopic analysis; format: functional, cell-based; settings: dose 25-100 nM
# [19] = test system: MGC-803; assay: Inhibition of cell migration in human MGC-803 cells assessed as decrease in wound healing rate at 7.5 to 30 nM measured after 48 hrs by wound healing assay; format: functional, cell-based; settings: dose 7.5-30 nM
# [20] = target: T1, Tubulin (Homo sapiens); assay: Inhibition of tubulin polymerization in human MGC-803 cells assessed as change in shape of nucleus at 2 to 7.5 nM measured after 48 hrs by Hoechst staining based confocal microscopy analysis; format: cell-based; settings: dose 2-7.5 nM
# [21] = test system: MGC-803; assay: Induction of cell cycle arrest in human MGC-803 cells assessed as accumulation at G2/M phase at 30 nM incubated for 24 hrs by propidium iodide staining based flow cytometry (reference value: 37.03 %); format: functional
# [22] = test system: MGC-803; assay: Induction of mitochondrial membrane potential loss in human MGC-803 cells at 7.5 nM after 48 hrs by JC-1 staining based flow cytometric analysis (reference value: 86 %); format: functional
# [23] = test system: MGC-803; assay: Down regulation of Pcdc2 expression in human MGC-803 cells at 7.5 to 30 nM measured after 24 hrs by Western blot analysis; format: functional, cell-based; settings: dose 7.5-30 nM
# [24] = test system: MGC-803; assay: Induction of G2/M phase cell cycle arrest in human MGC-803 cells assessed as upregulation of cyclinB1 protein expression at 7.5 to 30 nM measured after 48 hrs by western blot analysis; format: functional, cell-based; settings: dose 7.5-30 nM
# [25] = test system: MGC-803; assay: Induction of cell cycle arrest in human MGC-803 cells assessed as accumulation at S phase at 30 nM incubated for 24 hrs by propidium iodide staining based flow cytometry (reference value: 17.3 %); format: functional
smiles,measurement,setting,value
COc1ccc(/C=C\c2cc(OC)c(OC)c(OC)c2)cc1/C=C/C(=O)Nc1ccccc1N,Activity,[1],Dose-Dependent Effect
same,Activity,[1]; record 2,48.16%
same,Activity,[2],Active
same,Activity,[3],Active
same,IC50,[4],23 nM
same,Activity,[5],Active
same,Activity,[6],Dose-Dependent Effect
same,inhibition,[7],Active
same,Activity,[8],17.4%
same,Activity,[9],Active
same,Activity,[10],Active
same,Activity,[11],12.6%
same,IC50,[12],195 nM
same,Activity,[13],Active
same,Activity,[14],Active
same,Activity,[15],Dose-Dependent Effect
same,Activity,[16],Dose-Dependent Effect
same,Activity,[17],Active
same,inhibition,[18],Dose-Dependent Effect
same,inhibition,[19],Active
same,inhibition,[20],Active
same,Activity,[21],Dose-Dependent Effect
same,Activity,[21]; record 2,84.19%
same,Activity,[22],82.9%
same,Activity,[23],Active
same,Activity,[24],Active
same,Activity,[25],13.6%
